According to ChEMBL document CHEMBL1201862, “PubChem BioAssay data set” (2004):
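Values below derive from 48-hour exposures of cells grown in 96-well plates, with endpoints linearly interpolated between the two concentrations bracketing the appropriate inhibition level. GI50 = concentration required for 50% inhibition of growth.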 Active and inactive are the calls of the source. No stated cut-off is given here; in the data, active = GI50 up to about 1.1 µM and inactive = higher.

How the values were obtained:
Assay in all cases: NCI anticancer screen, dose series, 48 h
NCI-H460 = test system: NCI-H460
K562 = test system: K562
COLO 205 = test system: COLO 205
SF-539 = test system: SF-539
KM12 = test system: KM12
RXF 393 = test system: RXF 393
T47D = test system: T47D
SW-620 = test system: SW-620
SF-295 = test system: SF-295
HCC 2998 = test system: HCC 2998
U-251 = test system: U-251
SNB-19 = test system: SNB-19
NCI-H23 = test system: NCI-H23
DU-145 = test system: DU-145
OVCAR-5 = test system: OVCAR-5
Hs-578T = test system: Hs-578T
MDA-MB-435 = test system: MDA-MB-435
MOLT-4 = test system: MOLT-4
HOP-92 = test system: HOP-92
SR = test system: SR

| Structure (SMILES) | GI50 (NCI-H460) | GI50 (K562) | GI50 (COLO 205) | GI50 (SF-539) | GI50 (KM12) | GI50 (RXF 393) | GI50 (T47D) | GI50 (SW-620) | GI50 (SF-295) | GI50 (HCC 2998) | GI50 (U-251) | GI50 (SNB-19) | GI50 (NCI-H23) | GI50 (DU-145) | GI50 (OVCAR-5) | GI50 (Hs-578T) | GI50 (MDA-MB-435) | GI50 (MOLT-4) | GI50 (HOP-92) | GI50 (SR) |
| --- | --- | --- | --- | --- | --- | --- | --- | --- | --- | --- | --- | --- | --- | --- | --- | --- | --- | --- | --- | --- |
| CCC(C)(C)c1ccc(Oc2cccc(C(=O)O)c2)cc1 | 44.4 µM (inactive) | 32.6 µM (inactive) | 38.8 µM (inactive) | 33.5 µM (inactive) | 47.1 µM (inactive) | 98.6 µM (inactive) | 33.7 µM (inactive) | 53 µM (inactive) | 38.3 µM (inactive) | 93.3 µM (inactive) | 41.8 µM (inactive) | 85.5 µM (inactive) | 52.2 µM (inactive) | 97.1 µM (inactive) | > 100 µM (inactive) | 44 µM (inactive) | 45 µM (inactive) | 29.9 µM (inactive) |  |  |
| COc1ccc(P2(=S)Oc3ccc(C(c4ccccc4)(c4ccccc4)c4ccccc4)cc3O2)cc1 (stereo unspecified) | 18.6 µM (inactive) | 17.8 µM (inactive) | 20.2 µM (inactive) | 19.9 µM (inactive) | 15 µM (inactive) |  | 13.7 µM (inactive) | 19.6 µM (inactive) | 18.1 µM (inactive) | 16.3 µM (inactive) | 18 µM (inactive) | 16 µM (inactive) | 16.9 µM (inactive) | 20.5 µM (inactive) | 19.5 µM (inactive) | 21.8 µM (inactive) | 16.4 µM (inactive) | 19.6 µM (inactive) | 18.1 µM (inactive) | 22.3 µM (inactive) |
| COc1cc(-c2nc(N)c(C#N)c3c2CCS(=O)(=O)c2ccc(C)cc2-3)cc(OC)c1OC | > 100 µM (inactive) | > 100 µM (inactive) | > 100 µM (inactive) |  | > 100 µM (inactive) |  | 98.2 µM (inactive) | > 100 µM (inactive) |  | > 100 µM (inactive) | 24.8 µM (inactive) | 7.05 µM (inactive) | 25.4 µM (inactive) | > 100 µM (inactive) | > 100 µM (inactive) | 33.8 µM (inactive) | > 100 µM (inactive) |  | 9.16 µM (inactive) | > 100 µM (inactive) |
| CC(C)C(NC(=O)Oc1ccccc1)C(=O)NC1c2c(Br)sc(Br)c2C(=O)C1O (stereo unspecified) | 5.02 µM (inactive) | 7.8 µM (inactive) | 7.29 µM (inactive) | 14.2 µM (inactive) | > 25 µM (inactive) | 3.75 µM (inactive) | 6.34 µM (inactive) | 6.1 µM (inactive) | > 25 µM (inactive) | 4.2 µM (inactive) | 5.31 µM (inactive) | 4.93 µM (inactive) | 4.8 µM (inactive) | 9.4 µM (inactive) | 4.91 µM (inactive) | 8.95 µM (inactive) | 6.68 µM (inactive) | 11.9 µM (inactive) |  |  |
| Cc1[nH]c2[nH]c(=S)nc(NC(N)=S)c2c1Cc1ccccc1 | 48.6 µM (inactive) | 25.9 µM (inactive) | 15.1 µM (inactive) | 37.2 µM (inactive) | 16.4 µM (inactive) |  | 21.8 µM (inactive) | 34 µM (inactive) | 35.2 µM (inactive) |  | 43.9 µM (inactive) | 97.9 µM (inactive) | 29.7 µM (inactive) | 49.5 µM (inactive) | > 100 µM (inactive) | 18.9 µM (inactive) | 17.3 µM (inactive) | 23.4 µM (inactive) | > 100 µM (inactive) | 11.5 µM (inactive) |
| O=C(c1ccc(Cl)c(Cl)c1)N(C(=S)OC12CC3CC(CC(C3)C1)C2)c1ccccc1 | 37.8 µM (inactive) | 17.1 µM (inactive) | 15.9 µM (inactive) | 36.6 µM (inactive) | 33.7 µM (inactive) | > 100 µM (inactive) | 54.6 µM (inactive) | 35.2 µM (inactive) | 36.1 µM (inactive) | 43.3 µM (inactive) | 34.6 µM (inactive) | 33.3 µM (inactive) | 28.9 µM (inactive) | 83.2 µM (inactive) | 18.7 µM (inactive) | 41.3 µM (inactive) | 30.2 µM (inactive) |  | 31.8 µM (inactive) |  |
| CSc1ncnc2c1ncn2C1CC(Oc2ccc(C)cc2)C(COc2ccc(C)cc2)O1 (stereo unspecified) | > 100 µM (inactive) |  | > 100 µM (inactive) | > 100 µM (inactive) | > 100 µM (inactive) |  | 16.6 µM (inactive) | > 100 µM (inactive) | > 100 µM (inactive) | > 100 µM (inactive) | > 100 µM (inactive) | > 100 µM (inactive) | 49.4 µM (inactive) | > 100 µM (inactive) | > 100 µM (inactive) | > 100 µM (inactive) | > 100 µM (inactive) | 6.1 µM (inactive) | > 100 µM (inactive) | 76.6 µM (inactive) |
| CCN(CCO)CC1CCCC2CCCCC21 (stereo unspecified) | > 100 µM (inactive) | 46.5 µM (inactive) | > 100 µM (inactive) | > 100 µM (inactive) | > 100 µM (inactive) | > 100 µM (inactive) | > 100 µM (inactive) | > 100 µM (inactive) | > 100 µM (inactive) | > 100 µM (inactive) | > 100 µM (inactive) | > 100 µM (inactive) | > 100 µM (inactive) | > 100 µM (inactive) | > 100 µM (inactive) | > 100 µM (inactive) | > 100 µM (inactive) |  | > 100 µM (inactive) |  |
| CCOc1ccc(/N=N/C2C(=O)N(C(=O)CC(=O)Nc3ccccc3OC)N=C2C)cc1 (stereo unspecified) | 13.8 µM (inactive) | 13.2 µM (inactive) | > 100 µM (inactive) | 7.83 µM (inactive) | 4.35 µM (inactive) | 12.5 µM (inactive) | > 65 µM (inactive) | 8 µM (inactive) | > 36.6 µM (inactive) | > 21.7 µM (inactive) | > 36 µM (inactive) |  | 38 µM (inactive) | > 77.6 µM (inactive) | > 100 µM (inactive) | 2.85 µM (inactive) | 1.93 µM (inactive) | > 22.3 µM (inactive) | > 32.4 µM (inactive) |  |
| O=C(c1ccccc1)c1ccc(N2C(=O)/C(=C/c3cccc([N+](=O)[O-])c3)N=C2c2ccccc2)c(N2C(=O)/C(=C/c3cccc([N+](=O)[O-])c3)N=C2c2ccccc2)c1 | 5.28 µM (inactive) | 31.7 µM (inactive) | 2.77 µM (inactive) | 26.3 µM (inactive) | 11 µM (inactive) |  | 24 µM (inactive) | 32.9 µM (inactive) | 16.2 µM (inactive) | 15 µM (inactive) | 78.7 µM (inactive) | 54.8 µM (inactive) |  | 51.9 µM (inactive) | > 100 µM (inactive) | 30.7 µM (inactive) | 4.88 µM (inactive) | 20.5 µM (inactive) | 82.2 µM (inactive) | 23.4 µM (inactive) |
| C=C1C(=O)[C@@]23CC[C@@H]4[C@@]5(C)CCC[C@@]4(OC5=O)C2(C)CC[C@]1(OC)C3 (stereo partly specified) | 1.93 µM (inactive) | 0.0993 µM (active) | 2.38 µM (inactive) | 1.57 µM (inactive) | 2.32 µM (inactive) |  | 1.39 µM (inactive) | 0.718 µM (active) | 3.4 µM (inactive) | 0.351 µM (active) |  | 1.83 µM (inactive) | 1.45 µM (inactive) | 4.41 µM (inactive) | 2.06 µM (inactive) | 1.96 µM (inactive) | 1.32 µM (inactive) | 0.238 µM (active) |  | 0.23 µM (active) |
